Experimental data taken from patent publication US10993983B2, “Cyclic peptide epitopes and small-molecule mimics for inducing autophagy” (TRUSTEES OF TUFTS COLLEGE, priority 2016, dated 2021).
“Also recorded” adds a separate entry of the source. Marks after values point to notes of the source that are not given here. Bridges are numbered along the chain shown (N, C = ends). Where no end group is shown, it is not given here. [ ]: non-standard residue; d: D form. The star is where a group is joined. cyanopropanyl = 3-cyanopropanyl N-terminal cap, N#CCCC*; MP = not defined here

Assays:
Type in all cases: cell-based
HeLa cells = assay: Autophagy induction judged by p62 and LC3 immunoblots together; design: key to Activity compared to wild-type WT / Activity (μM) 10, single symbol / Activity (μM) 30, single symbol / Activity (μM) 50, single symbol / Activity (μM) 100, single symbol: −: activity not reported; 0: decreased vs. WT; +: similar to WT; ++: modest increase vs. WT; +++: significant increase vs. WT; conditions: for concentration at which autophagy induction (p62 degradation and LC3 lipidation) was observed / autophagy induction, result in words: HeLa cells; for concentration at which autophagy induction (p62 degradation and LC3 lipidation) was observed: immunoblot, 3 hour treatment; for autophagy induction, result in words: p62 and LC3 immunoblots; for Activity compared to wild-type WT: Tat-linked linear peptides, summation of p62 degradation assay and LC3 marker assay
Method: This 10-mer sequence was substituted with various thiol-containing amino acids at various positions, and then cross-linked with various linkers as described above (FIG. 5, a and FIG. 6).
(§1) Cells were treated with peptide in OPTI-MEM (Thermo Scientific) acidified with 0.15% (v/v) 6N HCl for 3 hour. Cells were rinsed with Dulbecco's phosphate buffered saline (PBS) and lysed in lysis buffer (20 mM HEPES, 150 mM NaCl, 1 mM EDTA, 1% Triton X-100, protease inhibitor cocktail (Roche) on ice for 1 hour. Cell lysates were centrifuged at 16,000 g for 10 min at 4° C. and analyzed by SDS-PAGE and transferred to PVDF membranes. The membranes were blocked 5% non-fat dry milk (NFDM) in PBST (PBS+0.05% Tween-20) for 1 hour, then incubated overnight at 4° C. with primary antibody in 5% NFDM in PBST. The blots were washed with PBST and incubated with HRP-conjugated secondary antibodies diluted in 5% NFDM in PBST for 1 hour at room temperature. Membranes were washed with PBST and visualized with SuperSignal West Pico Chemiluminescent Substrate (Thermo Scientific). Semi-quantitative results were obtained by noting the lowest concentration at which both p62 degradation and LC3-I to LC3-II conversion were observed.
(SEQ ID NO: 16)-Sequence. […] The N-terminus was capped with an acetyl group while the C terminus was capped with a —C(O)—NH2 group. The activity reported is a summation of results from both the p62 degradation assay and the LC3 marker assay.

p62 = p62 degradation assay (p62/actin immunoblot); design: key: −: activity not reported; 0: decreased vs. WT; +: similar to WT; ++: modest increase vs. WT; +++: significant increase vs. WT; conditions: first symbol; for Activity (μM) 10, p62/actin assay activity: 10 μM; for Activity (μM) 30, p62/actin assay activity: 30 μM; for Activity (μM) 50, p62/actin assay activity: 50 μM; for Activity (μM) 100, p62/actin assay activity: 100 μM; for Activity (μM) 10, starred cell, p62/actin assay activity: 10 μM marked * (footnote: data taken at 20 instead of 30 μM)
Method: as §1
(§2) Compounds 1-10 were evaluated using the assays described in Examples 4 and 5. Activity for each compound was measured in the p62 degradation assay and the LC3 marker assay as described herein. The activity at each concentration of peptide is given as, for example, (0/+) where 0 would be the p62/actin assay activity and + would be the LC3 assay activity.

LC3 = LC3 marker assay (LC3-I to LC3-II conversion immunoblot); design: key: −: activity not reported; 0: decreased vs. WT; +: similar to WT; ++: modest increase vs. WT; +++: significant increase vs. WT; conditions: second symbol; for Activity (μM) 10, LC3 assay activity: 10 μM; for Activity (μM) 30, LC3 assay activity: 30 μM; for Activity (μM) 50, LC3 assay activity: 50 μM; for Activity (μM) 100, LC3 assay activity: 100 μM; for Activity (μM) 10, starred cell, LC3 assay activity: 10 μM marked * (footnote: data taken at 20 instead of 30 μM)
Method: as §1, §2

[1] = Table 8, *Data taken at 20 instead of 30 μM

Substance: (pa)-VcNAcFHIAH (pa-V[dC]NA[dC]FHIAH; linker 2-5 via ortho‑xylene (inferred)) [Trp9Ala]
- concentration at which autophagy induction (p62 degradation and LC3 lipidation) was observed (HeLa cells): 100 µM
- autophagy induction, result in words (HeLa cells): significantly decreased activity

Substance: (free amine)-VcNAcFHIWH (H-V[dC]NA[dC]FHIWH; linker 2-5 via ortho‑xylene (inferred); not fully specified (C-terminus); printed as VcNAcFHIWH) [Compound H2N-DD5-o]
- autophagy induction, result in words (HeLa cells): almost no autophagy-inducing activity

Substance: VFNATFEIFHD [Compound T9, Tat-linked linear peptide]
- Activity compared to wild-type WT (HeLa cells): +

Substance: WNATFHIWH [Compound T32, Tat-linked linear peptide]
- Activity compared to wild-type WT (HeLa cells): ++

Substance: (pa)-VcNAcAHIWH (pa-V[dC]NA[dC]AHIWH; linker 2-5 via ortho‑xylene (inferred)) [Phe6Ala]
- autophagy induction, result in words (HeLa cells): complete loss of activity; also recorded: complete loss in activity

Substance: (hexyno)-VcNAcFHIWH (hexynoyl-V[dC]NA[dC]FHIWH; linker 2-5 via ortho‑xylene (inferred); not fully specified (C-terminus); printed as (hexyno)-VcNAcFHIWH) [hexyno-DD5-o]
- autophagy induction, result in words (HeLa cells): induced autophagy, but to a somewhat lesser extent than DD5-o

Substance: VWNATFHIAHD [Compound T41, Tat-linked linear peptide]
- Activity compared to wild-type WT (HeLa cells): +

Substance: FNATFHIWH [Compound T31, Tat-linked linear peptide]
- Activity compared to wild-type WT (HeLa cells): +

Substance: WNATFHIWHD [Compound T34, Tat-linked linear peptide]
- Activity compared to wild-type WT (HeLa cells): +++

Substance: VFNATFEIWYD [Compound T10, Tat-linked linear peptide]
- Activity compared to wild-type WT (HeLa cells): +

Substance: (pa)-VcNAcFHIWH [DD5-m] (pa-V[dC]NA[dC]FHIWH; linker 2-5 via meta‑xylene (inferred))
- autophagy induction, result in words (HeLa cells): did not induce autophagy

Substance: TFNATFEIWHD [Compound T22, Tat-linked linear peptide]
- Activity compared to wild-type WT (HeLa cells): 0

Substance: WNATFHIW [Compound T35, Tat-linked linear peptide]
- Activity compared to wild-type WT (HeLa cells): ++

Substance: (pa)-VcNAcFHAWH (pa-V[dC]NA[dC]FHAWH; linker 2-5 via ortho‑xylene (inferred)) [Ile8Ala]
- autophagy induction, result in words (HeLa cells): complete loss of activity; also recorded: complete loss in activity

Substance: VFNATFEVWHD [Compound T14, Tat-linked linear peptide]
- Activity compared to wild-type WT (HeLa cells): +

Substance: VFDATFEIWHD [Compound T3, Tat-linked linear peptide]
- autophagy induction, result in words (HeLa cells): less than Tat-beclin-1

Substance: VWNATFAIWHD [Compound T39, Tat-linked linear peptide]
- Activity compared to wild-type WT (HeLa cells): +++

Substance: VWNATFHYWHD [Compound T26, Tat-linked linear peptide]
- Activity compared to wild-type WT (HeLa cells): +++

Substance: VWNATFHIWHD [Compound T17, Tat-linked linear peptide]
- Activity (μM) 10, single symbol (HeLa cells; 10 μM, Table 6, control DMSO, one symbol only): +
- Activity compared to wild-type WT (HeLa cells): +++

Substance: FNATFEIWH [Compound T30, Tat-linked linear peptide]
- Activity compared to wild-type WT (HeLa cells): +

Substance: (cyano)-VcNAcFHIWH (cyanopropanyl-V[dC]NA[dC]FHIWH; linker 2-5 via ortho‑xylene (inferred); not fully specified (C-terminus); printed as (cyano)-VcNAcFHIWH) [cyano-DD5-o]
- autophagy induction, result in words (HeLa cells): induced autophagy, but to a somewhat lesser extent than DD5-o

Substance: (pa)-VWNATFHIWH (not fully specified (N-terminus, C-terminus); printed as (pa)-VWNATFHIWH) [pa-10mer, no linker]
- concentration at which autophagy induction (p62 degradation and LC3 lipidation) was observed (HeLa cells): 100 µM
- autophagy induction, result in words (HeLa cells): barely detectable activity

Substance: VCNATCHIWH [Compound 35]
- Activity (μM) 10, p62/actin assay activity (p62; Table 8, control compound T25): 0/0
- Activity (μM) 30, p62/actin assay activity (p62; Table 8, control compound T25): 0
- Activity (μM) 50, p62/actin assay activity (p62; Table 8, control compound T25): +++
- Activity (μM) 100, p62/actin assay activity (p62; Table 8, control compound T25): +++
- Activity (μM) 10, LC3 assay activity (LC3; Table 8, control compound T25): 0/0
- Activity (μM) 30, LC3 assay activity (LC3; Table 8, control compound T25): +
- Activity (μM) 50, LC3 assay activity (LC3; Table 8, control compound T25): ++
- Activity (μM) 100, LC3 assay activity (LC3; Table 8, control compound T25): ++

Substance: VCNATCHIRIWH (H-V[dC]NAT[dC]HIRIWH; linker 2-6 via MP (inferred); not fully specified (C-terminus); reading uncertain) [Compound 37]
- Activity (μM) 50, p62/actin assay activity (p62; Table 8, control compound T25): 0/0
- Activity (μM) 100, p62/actin assay activity (p62; Table 8, control compound T25): 0/0
- Activity (μM) 50, LC3 assay activity (LC3; Table 8, control compound T25): 0/0
- Activity (μM) 100, LC3 assay activity (LC3; Table 8, control compound T25): 0/0

Substance: VCNATCHIWH [Compound 25]
- Activity (μM) 10, p62/actin assay activity (p62; Table 6, control DMSO): ++/++
- Activity (μM) 30, p62/actin assay activity (p62; Table 6, control DMSO): ++/++
- Activity (μM) 50, p62/actin assay activity (p62; Table 6, control DMSO): +++/+++
- Activity (μM) 100, p62/actin assay activity (p62; Table 6, control DMSO): +++/+++
- Activity (μM) 10, LC3 assay activity (LC3; Table 6, control DMSO): ++/++
- Activity (μM) 30, LC3 assay activity (LC3; Table 6, control DMSO): ++/++
- Activity (μM) 50, LC3 assay activity (LC3; Table 6, control DMSO): +++/+++
- Activity (μM) 100, LC3 assay activity (LC3; Table 6, control DMSO): +++/+++

Substance: VCNACFHIWH [Compound 72]
- Activity (μM) 30, p62/actin assay activity (p62; Table 8, control compound T25): 0/0
- Activity (μM) 50, p62/actin assay activity (p62; Table 8, control compound T25): +
- Activity (μM) 10, starred cell, p62/actin assay activity (p62; Table 8): 0/0*
- Activity (μM) 30, LC3 assay activity (LC3; Table 8, control compound T25): 0/0
- Activity (μM) 50, LC3 assay activity (LC3; Table 8, control compound T25): ++
- Activity (μM) 10, starred cell, LC3 assay activity (LC3; Table 8): 0/0*

Substance: VCNATCHIWH [Compound 30]
- Activity (μM) 30, p62/actin assay activity (p62; Table 7, control compound T25): 0/0
- Activity (μM) 30, p62/actin assay activity (p62; Table 8, control compound T25): 0/0
- Activity (μM) 50, p62/actin assay activity (p62; Table 7, control compound T25): 0/0
- Activity (μM) 50, p62/actin assay activity (p62; Table 8, control compound T25): 0/0
- Activity (μM) 100, p62/actin assay activity (p62; Table 7, control compound T25): +
- Activity (μM) 100, p62/actin assay activity (p62; Table 8, control compound T25): 0/0
- Activity (μM) 10, starred cell, p62/actin assay activity (p62; Table 8): 0/0*
- Activity (μM) 30, LC3 assay activity (LC3; Table 7, control compound T25): 0/0
- Activity (μM) 30, LC3 assay activity (LC3; Table 8, control compound T25): 0/0
- Activity (μM) 50, LC3 assay activity (LC3; Table 7, control compound T25): 0/0
- Activity (μM) 50, LC3 assay activity (LC3; Table 8, control compound T25): 0/0
- Activity (μM) 100, LC3 assay activity (LC3; Table 7, control compound T25): 0
- Activity (μM) 100, LC3 assay activity (LC3; Table 8, control compound T25): 0/0
- Activity (μM) 10, starred cell, LC3 assay activity (LC3; Table 8): 0/0*

Substance: VCNACFHIWH [Compound 71]
- Activity (μM) 30, p62/actin assay activity (p62; Table 8, control compound T25): 0
- Activity (μM) 50, p62/actin assay activity (p62; Table 8, control compound T25): 0
- Activity (μM) 10, starred cell, p62/actin assay activity (p62; Table 8): 0
- Activity (μM) 30, LC3 assay activity (LC3; Table 8, control compound T25): ++
- Activity (μM) 50, LC3 assay activity (LC3; Table 8, control compound T25): +++
- Activity (μM) 10, starred cell, LC3 assay activity (LC3; Table 8): +

Substance: VWNATFHIWHD [63] (not fully specified (N-terminus, C-terminus)) [Compound 63]
- Activity (μM) 10, p62/actin assay activity (p62; Table 8, control compound T25): 0
- Activity (μM) 30, starred cell, p62/actin assay activity (p62; [1]): 0
- Activity (μM) 10, LC3 assay activity (LC3; Table 8, control compound T25): +
- Activity (μM) 30, starred cell, LC3 assay activity (LC3; [1]): +++

Substance: VCNATCHIWH [Compound 28]
- Activity (μM) 30, p62/actin assay activity (p62; Table 7, control compound T25): 0/0
- Activity (μM) 50, p62/actin assay activity (p62; Table 7, control compound T25): 0/0
- Activity (μM) 100, p62/actin assay activity (p62; Table 7, control compound T25): +++
- Activity (μM) 30, LC3 assay activity (LC3; Table 7, control compound T25): 0/0
- Activity (μM) 50, LC3 assay activity (LC3; Table 7, control compound T25): 0/0
- Activity (μM) 100, LC3 assay activity (LC3; Table 7, control compound T25): 0

Substance: VCNACFHIWH [Compound 56]
- Activity (μM) 10, p62/actin assay activity (p62; Table 8, control compound T25): 0/0
- Activity (μM) 30, p62/actin assay activity (p62; Table 8, control compound T25): +
- Activity (μM) 50, p62/actin assay activity (p62; Table 8, control compound T25): +
- Activity (μM) 10, LC3 assay activity (LC3; Table 8, control compound T25): 0/0
- Activity (μM) 30, LC3 assay activity (LC3; Table 8, control compound T25): 0
- Activity (μM) 50, LC3 assay activity (LC3; Table 8, control compound T25): 0
